Experimental findings from patent publication US20120178738A1, “DIBENZO [B,F] [1,4]OXAZAPINE COMPOUNDS” (ARYX THERAPEUTICS, INC., priority 2007, published 2012) are described below.

For one experiment, the target named is T1, 5-HT2A receptor (Rattus norvegicus, UniProt P14842).
T1 construct: Eight strips of tissue (0.5 cm long) were cut. and were mounted in 10 ml organ baths; tissue Charles River Laboratories; host or cells: rat aorta strips, endothelium removed
Briefly: cell-based. In outline:
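Endothelium-denuded aortic strips from male Sprague Dawley rats held at 37° C in carbogen-aerated Krebs, pH 7.4, under 2 g resting tension. Contraction recorded as tension change, expressed as % of maximal 5-HT response; agonist EC50 from Parker–Waud fit, antagonist pKB/pA2 from concentration-ratios.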

Experiment [1] has as its target T2, human D2s dopamine receptors (Homo sapiens, UniProt P14416).
T2 construct: expressed in transfected cells; host or cells: Chinese hamster ovary cells (membranes)
Briefly: hD2S receptor radioligand binding ([3H]spiperone). Conditions: for Ki: pKi reported on a scale of 1 through 5. In outline: (§1)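 Membranes/tissue + radioligand (single conc., equilibrium) + test cpd concentration range; filtration separation; NSB via known receptor blocker; NSB-corrected displacement curves analysed.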

Experiment [2] deals with T3, human D2L dopamine receptors (Homo sapiens, UniProt P14416).
T3 construct: expressed in transfected cells; host or cells: insect Sf9 cells (membranes)
T3 sequence (P14416 whole entry): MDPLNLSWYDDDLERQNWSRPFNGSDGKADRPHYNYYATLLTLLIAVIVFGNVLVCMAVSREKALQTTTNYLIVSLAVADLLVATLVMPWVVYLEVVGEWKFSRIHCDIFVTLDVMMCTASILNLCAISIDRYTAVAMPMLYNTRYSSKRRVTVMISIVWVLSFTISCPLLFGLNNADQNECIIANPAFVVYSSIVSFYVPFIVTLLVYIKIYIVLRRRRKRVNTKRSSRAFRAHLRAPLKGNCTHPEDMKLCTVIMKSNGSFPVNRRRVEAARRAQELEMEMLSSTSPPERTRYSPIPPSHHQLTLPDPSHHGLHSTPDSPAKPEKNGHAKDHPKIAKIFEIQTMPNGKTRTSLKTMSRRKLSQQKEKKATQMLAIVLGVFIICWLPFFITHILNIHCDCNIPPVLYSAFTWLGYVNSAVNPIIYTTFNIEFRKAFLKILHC
Description: hD2L receptor radioligand binding ([3H]spiperone). Conditions: for Ki: pKi reported on a scale of 1 through 5, read-out: D2L (pKi) (converted). The gist of the method:
as §1

For a further experiment, the target named is T4, human 5HT1A receptors (Homo sapiens, UniProt P08908).
T4 construct: expressed in transfected cells; host or cells: Chinese hamster ovary cells (membranes)
T4 sequence (P08908 1-422): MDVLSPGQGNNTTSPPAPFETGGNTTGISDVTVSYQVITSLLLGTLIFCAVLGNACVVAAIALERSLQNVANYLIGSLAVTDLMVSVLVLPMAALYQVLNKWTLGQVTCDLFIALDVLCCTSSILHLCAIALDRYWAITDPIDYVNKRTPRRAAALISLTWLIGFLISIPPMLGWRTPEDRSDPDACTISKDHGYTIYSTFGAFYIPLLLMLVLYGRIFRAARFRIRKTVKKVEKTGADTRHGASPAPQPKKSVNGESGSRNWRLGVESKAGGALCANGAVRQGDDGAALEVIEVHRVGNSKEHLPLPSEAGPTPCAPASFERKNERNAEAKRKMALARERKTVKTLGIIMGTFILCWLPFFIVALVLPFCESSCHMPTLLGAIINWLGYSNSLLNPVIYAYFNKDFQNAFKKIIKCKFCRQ
Description: h5-HT1A receptor radioligand binding ([3H]8OH-DPAT). Conditions: for Ki: pKi reported on a scale of 1 through 5; for binding to 5-HT1A: in words. The gist of the method:
as §1

The next experiment concerns the target T5, human H1 receptors (Homo sapiens, UniProt P35367).
T5 construct: expressed in transfected cells; host or cells: Chinese hamster ovary cells (membranes)
Briefly: hH1 receptor radioligand binding ([3H]Pyrilamine). The following applies: for Ki: pKi reported on a scale of 1 through 5; for binding to H1: in words. In outline:
as §1

In a further experiment the target is T6, human M1 receptors (Homo sapiens, UniProt P11229).
T6 construct: expressed in transfected cells; host or cells: Chinese hamster ovary cells (membranes)
T6 sequence (P11229 1-460): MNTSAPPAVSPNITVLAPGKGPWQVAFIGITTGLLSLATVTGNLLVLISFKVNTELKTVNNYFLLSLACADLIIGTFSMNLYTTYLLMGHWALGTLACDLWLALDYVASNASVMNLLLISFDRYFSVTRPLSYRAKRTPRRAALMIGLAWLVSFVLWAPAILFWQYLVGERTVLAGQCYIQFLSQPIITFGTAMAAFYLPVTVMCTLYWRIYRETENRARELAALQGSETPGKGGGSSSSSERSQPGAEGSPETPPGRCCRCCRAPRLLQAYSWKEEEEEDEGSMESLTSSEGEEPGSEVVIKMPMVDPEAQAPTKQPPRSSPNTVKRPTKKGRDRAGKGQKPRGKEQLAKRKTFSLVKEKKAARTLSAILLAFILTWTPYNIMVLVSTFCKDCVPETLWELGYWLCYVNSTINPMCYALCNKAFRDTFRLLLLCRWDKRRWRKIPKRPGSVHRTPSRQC
Briefly: hM1 receptor radioligand binding ([3H]NMS). Conditions: for Ki: pKi reported on a scale of 1 through 5; for affinity to M1 receptors: in words. The gist of the method: as §1

The mark [3] stands for this setting: read-out: 5HT2A (pKb) (converted).
[4] abbreviates: relative to clozapine, in words.

SMILES strings stand for the structures. Read-outs that look alike come from different tables or passages of the source. Some results are limits rather than exact numbers.

T1 sequence (P14842 whole entry): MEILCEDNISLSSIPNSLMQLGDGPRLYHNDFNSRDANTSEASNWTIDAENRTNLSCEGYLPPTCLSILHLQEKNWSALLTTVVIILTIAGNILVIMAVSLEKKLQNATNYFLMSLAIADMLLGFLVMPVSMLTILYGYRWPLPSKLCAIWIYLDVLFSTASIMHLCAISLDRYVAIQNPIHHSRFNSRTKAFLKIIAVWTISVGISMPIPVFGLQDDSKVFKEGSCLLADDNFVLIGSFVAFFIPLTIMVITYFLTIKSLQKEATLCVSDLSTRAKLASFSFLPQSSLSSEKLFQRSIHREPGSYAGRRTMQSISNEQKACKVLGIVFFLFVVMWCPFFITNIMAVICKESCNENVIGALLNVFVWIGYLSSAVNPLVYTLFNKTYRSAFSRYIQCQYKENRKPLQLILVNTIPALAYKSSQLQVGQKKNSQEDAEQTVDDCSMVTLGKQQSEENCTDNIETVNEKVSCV
T5 sequence (P35367 whole entry): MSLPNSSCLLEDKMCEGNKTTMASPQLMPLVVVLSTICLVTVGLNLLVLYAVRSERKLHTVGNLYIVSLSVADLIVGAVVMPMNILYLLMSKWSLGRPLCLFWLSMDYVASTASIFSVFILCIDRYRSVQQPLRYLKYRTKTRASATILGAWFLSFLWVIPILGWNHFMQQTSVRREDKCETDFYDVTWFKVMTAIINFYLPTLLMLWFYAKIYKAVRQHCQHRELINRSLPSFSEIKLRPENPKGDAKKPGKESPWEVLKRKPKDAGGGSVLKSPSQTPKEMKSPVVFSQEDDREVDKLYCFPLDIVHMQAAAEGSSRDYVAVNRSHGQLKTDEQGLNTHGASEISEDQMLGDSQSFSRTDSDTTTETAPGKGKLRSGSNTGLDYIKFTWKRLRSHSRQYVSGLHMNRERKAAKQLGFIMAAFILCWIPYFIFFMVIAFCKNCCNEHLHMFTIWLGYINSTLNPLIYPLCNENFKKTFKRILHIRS
T2 sequence (P14416 1-414 isoform P14416-2): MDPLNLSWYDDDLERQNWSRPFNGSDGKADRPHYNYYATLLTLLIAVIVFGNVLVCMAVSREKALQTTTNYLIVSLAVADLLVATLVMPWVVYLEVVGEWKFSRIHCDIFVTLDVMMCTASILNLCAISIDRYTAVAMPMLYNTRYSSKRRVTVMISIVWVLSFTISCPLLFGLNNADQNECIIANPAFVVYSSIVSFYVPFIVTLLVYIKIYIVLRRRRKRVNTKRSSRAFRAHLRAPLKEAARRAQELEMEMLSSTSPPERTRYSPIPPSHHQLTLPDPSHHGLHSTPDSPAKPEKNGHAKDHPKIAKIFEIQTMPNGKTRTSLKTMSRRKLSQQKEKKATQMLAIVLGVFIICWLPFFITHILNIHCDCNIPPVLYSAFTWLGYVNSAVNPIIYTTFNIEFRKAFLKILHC

On to `CCOC(=O)CC1CN(C2=Nc3cc(Cl)ccc3Oc3ccccc32)CCN1` (centres unmarked) [A, (E)-ethyl 2-(4-(8-chlorodibenzo[b,f][1,4]oxazepin-11-yl)piperazin-2-yl)acetate], for which the Kb at 5-HT2A receptor (setting [3]) is 0.01 to 0.0309 µM. Besides, the Ki in experiment [1] is 2.51 to 9.77 µM; in experiment [2], 0.631 to 2.45 µM; at human 5HT1A receptors, 0.1 to 0.977 µM; on human H1 receptors, 0.1 to 0.977 µM; at human M1 receptors, 5.01 to 9.77 µM.
As for `CCOC(=O)C[C@H]1CN(C2=Nc3cc(Cl)ccc3Oc3ccccc32)CCN1` [Compound K, (S,E)-ethyl 2-(4-(8-chlorodibenzo[b,f][1,4]oxazepin-11-yl)piperazin-2-yl)acetate], at 5-HT2A receptor (rat aorta, Schild plot vs 5-HT, read-out: pA2, antagonist for 5-HT2A receptors (converted)), the Kb was 0.00316 µM. Further, on 5-HT2A receptor (setting [3]), the Kb was 0.00316 to 0.00977 µM. Moreover, in experiment [1] (in words), the “IC50 binding affinity for D2S receptors” value is “low micromolar” and the “binds to D2S dopamine receptors” value is given as “Binds”. In addition, the Ki in experiment [1] was 0.631 to 2.45 µM. In addition, the “affinity for the D2S receptor compared with clozapine” value in experiment [1] (setting [4]) is listed as “comparable”. Besides, in experiment [2] (in words), the “IC50 binding affinity for D2L receptors” value is given as “low micromolar” and the “binds to D2L dopamine receptors” value was “Binds”. For the same compound, in experiment [2], the Ki is 0.631 to 2.45 µM. In addition, the “affinity for the D2L receptor compared with clozapine” value in experiment [2] (setting [4]) is given as “comparable”. Also, on human 5HT1A receptors, the “binding to 5-HT1A” value was “bind” and the Ki was 0.1 to 0.977 µM. Besides, the “affinity for the 5-HT1A receptors, fold higher than clozapine” value at human 5HT1A receptors (relative to clozapine) is 4 fold. For the same compound, at human H1 receptors, the “binding to H1” value was “bind” and the Ki is 0.1 to 0.977 µM. For the same compound, the “affinity for the H1 receptors, fold lower than clozapine” value at human H1 receptors (relative to clozapine) was 69 fold. For the same compound, at human M1 receptors, the “affinity to M1 receptors” value is “very low affinity” and the Ki is above 10 µM.
For `O=C(O)C[C@H]1CN(C2=Nc3cc(Cl)ccc3Oc3ccccc32)CCN1` [Compound Q, (S,E)-2-(4-(8-chlorodibenzo[b,f][1,4]oxazepin-11-yl)piperazin-2-yl)acetic acid], at 5-HT2A receptor (setting [3]), the Kb was 0.01 to 0.0309 µM. Further, the “affinity for the 5-HT2A receptors, fold lower than Compound K” value on 5-HT2A receptor (relative to Compound K) came out at 8 fold. Moreover, the “binds to D2S dopamine receptors” value in experiment [1] (in words) was “not”. Further, the Ki in experiment [1] was above 10 µM; in experiment [2], above 10 µM; on human 5HT1A receptors, 0.1 to 0.977 µM; on human H1 receptors, 0.1 to 0.977 µM; on human M1 receptors, above 10 µM. Further, the “binds to D2L dopamine receptors” value in experiment [2] (in words) is listed as “not”. Moreover, the “binding to 5-HT1A” value at human 5HT1A receptors was “bind”. Further, the “binding to H1” value on human H1 receptors is “bind”. Moreover, on human M1 receptors, the “affinity to M1 receptors” value is given as “very low affinity”.
Consider `O=C(C[C@H]1CN(C2=Nc3cc(Cl)ccc3Oc3ccccc32)CCN1)OC1CCCC1` [DR, (S,E)-cyclopentyl 2-(4-(8-chlorodibenzo[b,f][1,4]oxazepin-11-yl)piperazin-2-yl)acetate], for which, on 5-HT2A receptor (setting [3]), the Kb was 0.01 to 0.0309 µM. The Ki in experiment [1] was 0.631 to 2.45 µM; in experiment [2], 0.631 to 2.45 µM; on human 5HT1A receptors it was 0.01 to 0.0977 µM; at human H1 receptors it was 1 to 9.77 µM; at human M1 receptors, 1.26 to 2.45 µM.
With `O=C(C[C@H]1CN(C2=Nc3cc(Cl)ccc3Oc3ccccc32)CCN1)OC1CCOCC1` [DV, (S,E)-tetrahydro-2H-pyran-4-yl 2-(4-(8-chlorodibenzo[b,f][1,4]oxazepin-11-yl)piperazin-2-yl)acetate], the Kb on 5-HT2A receptor (setting [3]) is 0.00316 to 0.00977 µM. Further, the Ki in experiment [1] was 0.631 to 2.45 µM; in experiment [2] it was 2.51 to 9.77 µM; at human 5HT1A receptors, 0.01 to 0.0977 µM; at human H1 receptors, 1 to 9.77 µM; at human M1 receptors, above 10 µM.
In the case of `CCC(C)OC(=O)C[C@H]1CN(C2=Nc3cc(Cl)ccc3Oc3ccccc32)CCN1C` (stereo partly drawn) [DY, sec-butyl 2-((S)-4-((E)-8-chlorodibenzo[b,f][1,4]oxazepin-11-yl)-1-methylpiperazin-2-yl)acetate], on 5-HT2A receptor (setting [3]), the Kb was 0.01 to 0.0309 µM. The Ki in experiment [1] is 2.51 to 9.77 µM; at human 5HT1A receptors, 1 to 9.77 µM; at human H1 receptors, 0.01 to 0.0977 µM; at human M1 receptors, above 10 µM.
For `O=C(C[C@H]1CN(C2=Nc3cc(Cl)ccc3Oc3ccccc32)CCN1)O[C@H]1CCOC1` [EQ, (S)-tetrahydrofuran-3-yl 2-((S)-4-((E)-8-chlorodibenzo[b,f][1,4]oxazepin-11-yl)piperazin-2-yl)acetate], the Kb at 5-HT2A receptor (setting [3]) is 0.00316 to 0.00977 µM. For the same compound, the Ki in experiment [1] was 0.631 to 2.45 µM; at human 5HT1A receptors, 0.01 to 0.0977 µM; on human H1 receptors, 0.01 to 0.0977 µM; on human M1 receptors, 5.01 to 9.77 µM.
Turning to `CCOC(=O)C[C@H]1CN(C2=Nc3cc(Cl)ccc3Oc3ccccc32)CCN1CCC(C)C` [ER, (S,E)-ethyl 2-(4-(8-chlorodibenzo[b,f][1,4]oxazepin-11-yl)-1-isopentylpiperazin-2-yl)acetate], the Kb at 5-HT2A receptor (setting [3]) was 0.0316 to 0.0977 µM. Further, the Ki in experiment [1] was 2.51 to 9.77 µM; at human 5HT1A receptors it was 1 to 9.77 µM; on human H1 receptors, 0.1 to 0.977 µM; on human M1 receptors, above 10 µM.
For `CN1CCN(C2=Nc3cc(Cl)ccc3Oc3ccccc32)C[C@@H]1CC(=O)NCC(F)(F)C(F)(F)F` [EU, (S,E)-2-(4-(8-chlorodibenzo[b,f][1,4]oxazepin-11-yl)-1-methylpiperazin-2-yl)-N-(2,2,3,3,3-pentafluoropropyl)acetamide], the Kb on 5-HT2A receptor (pKb reported on a scale of 1 through 5, read-out: 5HT2A (pKb) (converted)) was above 0.1 µM. Moreover, the Ki in experiment [1] was 2.51 to 9.77 µM; at human 5HT1A receptors it was 1 to 9.77 µM; on human H1 receptors, 0.1 to 0.977 µM; at human M1 receptors, above 10 µM.
As to `CCOC(=O)CC1CN(C2=Nc3ccc(F)cc3Oc3ccccc32)CCN1` (centres unmarked) [J, (E)-ethyl 2-(4-(7-fluorodibenzo[b,f][1,4]oxazepin-11-yl)piperazin-2-yl)acetate], on 5-HT2A receptor (setting [3]), the Kb is 0.0316 to 0.0977 µM. In addition, the Ki is 2.51 to 9.77 µM in experiment [1]; 2.51 to 9.77 µM in experiment [2]; 0.1 to 0.977 µM on human 5HT1A receptors; 0.1 to 0.977 µM at human H1 receptors; above 10 µM on human M1 receptors.
For `CC(C)OC(=O)CC1CN(C2=Nc3cc(Cl)ccc3Oc3ccccc32)CCN1` (centres unmarked) [L, (E)-isopropyl 2-(4-(8-chlorodibenzo[b,f][1,4]oxazepin-11-yl)piperazin-2-yl)acetate], the Kb on 5-HT2A receptor (setting [3]) is 0.01 to 0.0309 µM. Moreover, the Ki was 2.51 to 9.77 µM in experiment [1]; 0.631 to 2.45 µM in experiment [2]; 0.1 to 0.977 µM on human 5HT1A receptors; 0.1 to 0.977 µM at human H1 receptors; above 10 µM at human M1 receptors.
As for `CC(C)OC(=O)CC1CN(C2=Nc3ccc(F)cc3Oc3ccccc32)CCN1` (centres unmarked) [M, (E)-isopropyl 2-(4-(7-fluorodibenzo[b,f][1,4]oxazepin-11-yl)piperazin-2-yl)acetate], the Kb at 5-HT2A receptor (setting [3]) is 0.01 to 0.0309 µM. In addition, the Ki in experiment [1] is above 10 µM; in experiment [2], 2.51 to 9.77 µM; on human 5HT1A receptors, 0.1 to 0.977 µM; at human H1 receptors it was 1 to 9.77 µM; at human M1 receptors, above 10 µM.
